Results on ten molecules are retold here after patent US20260216179A1, “1,5-NAPHTHYRIDINE DERIVATIVES AS KRAS ONCOPROTEIN INHIBITORS” (Beta Pharma, Inc., priority 2022, published 2026).

Where two headings read alike, the source gives them in different places.

Data set [1] addresses T1, KRAS G12C (Homo sapiens, UniProt P01116, G12C). Kind of data set: NanoBRET target engagement cellular assay in transiently transfected HEK293 cells. Format: cell-based. Also on record: expressed in transfected cells; host or cells: HEK293, transiently transfected. Particulars: RAS tracer K2 1 μM, 2 hours at 37° C. Here is the method: KRAS G12C cellular activity was determined in a target engagement cellular assay (NanoBRET™) in transiently transfected HEK293 cells by Reaction Biology Corporation (RBC), 1 Great Valley Parkway, Suite 2 Malvern, PA 19355, USA. HEK293 were cultivated to 70-80% confluence prior to the assay followed by trypsinizing and collection of the cells. BI-2852 was used as the KRAS G12C reference compound. Each test compound solution was delivered from a compound source plate to the wells of 384-well white non-binding surface plate by an Echo 550 prior to the assay.
A 10 μg/mL solution of DNA in Opti-MEM was prepared without serum that consisted of 1 μg LgBiT®-KRAS (G12C)-NanoLuc fusion vector, 1 μg SmBIT®-KRAS (G12C)-NanoLuc fusion vector and 8 μg transfection carrier DNA. This mixture was subsequently treated with 30 μL of FuGENE HD Transfection Reagent into each milliliter of DNA mixture to form a lipid: DNA complex. The resulting mixture was then gently mixed by inversion and incubated at ambient temperature for 20 minutes to allow complexes to form. A mixture of 1 part of lipid: DNA complex with 20 parts of suspended HEK293 cells was added to a sterile conical tube and mixed gently by inversion. The cells+lipid: DNA complex mixture was then added to a sterile tissue culture dish and incubated for 24 hours. The medium was removed from the dish via aspiration followed by trypsinizing and allowing the cells to dissociate from the tissue culture dish. The trypsin was subsequently neutralized by using medium containing serum and centrifugation at 200×g for 5 minutes to pellet the cells in the conical tube. The cell density was adjusted to 2×10^5 cells/mL in Opti-MEM without phenol red. One part of Complete 20× NanoBRET™ RAS Tracer Reagent was dispensed to 20 parts of cells in the conical tube and mixed gently by inversion. The resulting cell suspension was dispensed into a white, 384-well NBS plate containing the test compounds (starting at 10 μM, 10-dose with 3-fold dilution) at 37° C., 5% CO2 for 2 hours. The final concentration for RAS tracer K2 was 1 μM. […]
Freshly prepared substrate solution (3×) in the assay medium was added to each well of the 384-well NBS plate and incubated for 3 minutes at room temperature. The donor emission wavelength (460 nm) and acceptor emission wavelength (600 nm) were measured using an Envision 2104 plate reader. […] The BRET ratio was calculated using the following equation: BRET Ratio= [(Acceptor sample÷Donor sample)−(Acceptor no-tracer control[…]Donor no-tracer control)]. The normalized BRET response (%) was calculated by the following equation: (BRET ratio of test compound/BRET ratio of DMSO control)*100%. The IC50 curves were plotted and IC50 values were calculated with GraphPad Prism 4 based on a sigmoidal dose-response equation.
Target sequence in this assay (P01116 1-186 isoform P01116-2 G12C limits assumed): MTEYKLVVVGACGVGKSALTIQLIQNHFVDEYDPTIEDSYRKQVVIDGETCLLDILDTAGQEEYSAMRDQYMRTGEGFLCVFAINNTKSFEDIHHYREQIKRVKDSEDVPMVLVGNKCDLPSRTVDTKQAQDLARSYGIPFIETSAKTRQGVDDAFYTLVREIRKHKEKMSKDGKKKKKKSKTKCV
Target sequence in this assay (P01116 1-186 isoform P01116-2 G12C limits assumed): as above

The target of data set [2] is T1, KRAS G12C. Kind of data set: KRAS G12C/SOS1 nucleotide exchange assay (Bodipy-GDP to GTP exchange). The class given is biochemical. Also on record: KRAS G12C or KRAS G12D (aa 2-169, expressed in E. coli); His-tag (TEV cleavable) (N); purchased Reaction Biology Corporation (RBC), which ran the assay MSC-11-502 (SOS1 only; none given for KRAS); host or cells: E. coli. Particulars: SOS1-mediated Bodipy-GDP/KRAS G12C exchange; dRFU analysis method for covalent inhibitors; 30 min pre-incubation at RT; 0.5% DMSO. Here is the method:
(§1) The biological activity of the Examples was determined in a KRAS
(§2) The assay evaluates the SOS1-mediated Bodipy-GDP to GTP exchange observed with KRAS G12C and KRAS G12D.
(§3) Reaction Buffer: 40 mM HEPES 7.4, 10 mM MgCl2, 1 mM DTT 0.002% Triton X100, 0.5% DMSO.
• 1. Deliver 10 μL of 1.5× KRAS solution in freshly prepared reaction buffer to reaction wells. • 2. Deliver compounds in 100% DMSO into buffer using acoustic technology (Echo550; nanoliter range). • 3. Incubate compounds with KRAS for 30 minutes at room temperature. • 4. Prepare 3× (SOS1+GTP) solution in reaction buffer. • 5. Deliver 5 μL of SOS1+GTP solution into reactions wells (deliver GTP only to column 1 for no SOS1 control). • 6.
Data Analysis: The fluorescence data was normalized using the equation below and fitted to “one phase exponential decay” equation using GraphPad prism software. The plateau was fixed to zero (use for non-covalent inhibitors) and rate ×1000 was used to calculate the IC50 values.
(§4) where Yraw is defined as fluorescence at time t, Ao is the average initial fluorescence with no SOS1, and Mis the minimum fluorescence at the end of the reaction at the maximum SOS1.
The background subtracted signals (no SOS1 protein wells were used as background) were converted to % activity relative to DMSO controls. Data was analyzed using GraphPad Prism 4 with “sigmoidal dose-response (variable slope)”; 4 parameters with Hill Slope. The constraints were bottom (constant equal to 0) and top (must be less than 120).
Target sequence in this assay (P01116 2-169 G12C): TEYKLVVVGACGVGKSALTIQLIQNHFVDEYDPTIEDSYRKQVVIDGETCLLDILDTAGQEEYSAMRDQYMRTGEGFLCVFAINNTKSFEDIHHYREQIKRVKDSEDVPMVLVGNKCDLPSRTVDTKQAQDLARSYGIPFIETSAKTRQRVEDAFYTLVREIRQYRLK

Data set [3] concerns the target T2, KRAS G12D (Homo sapiens, UniProt P01116, G12D).
T2 construct: KRAS G12C or KRAS G12D (aa 2-169, expressed in E. coli); His-tag (TEV cleavable) (N); purchased Reaction Biology Corporation (RBC), which ran the assay MSC-11-502 (SOS1 only; none given for KRAS); host or cells: E. coli
Kind of data set: KRAS G12D/SOS1 nucleotide exchange assay (Bodipy-GDP to GTP exchange). The class given is biochemical. The conditions noted are these: SOS1-mediated Bodipy-GDP/KRAS G12D exchange; rate constant method (plateau = 0) for reversible inhibitors; 30 min pre-incubation at RT; 0.5% DMSO. Here is the method: as §1, §2
The compound pre-incubation time was 30 min at RT and the curve fits were performed when the activities at the highest concentration of compounds were less than 65%.
as §3
• 1. Deliver 10 μL of 1.5× KRAS solution in freshly prepared reaction buffer to reaction wells. • 2. Deliver compounds in 100% DMSO into buffer using acoustic technology (Echo550; nanoliter range). • 3. Incubate compounds with KRAS for 30 minutes at room temperature. • 4. Prepare 3× (SOS1+GTP) solution in reaction buffer. • 5. […]
Data Analysis: The fluorescence data was normalized using the equation below and fitted to “one phase exponential decay” equation using GraphPad prism software. […]
as §4
The background subtracted signals (no SOS1 protein wells were used as background) were converted to % activity relative to DMSO controls. Data was analyzed using GraphPad Prism 4 with “sigmoidal dose-response (variable slope)”; 4 parameters with Hill Slope. […]

Data set [4] can be described thus: PK profile in male CD1 mice. The class given is in vivo. The conditions noted are these: for MRT inf: read-out: MRT0-inf; for MRT last: read-out: MRT0-last. From the text: PK Profile in male CD1 mice:
Data set [5] deals with MIA PaCa-2 cells. In words: CellTiter-Glo viability assay. The class given is cell-based. Particulars: Homo sapiens, 72 hours, read-out: CTG Assay IC50 Values.
Protocol: The reference compound staurosporine was purchased from Sigma-Aldrich (Saint Louis, MI). CellTiter-Glo® 2.0 Luminescent cell viability assay reagent was purchased from Promega (Madison, WI). MIA PaCa-2 cell line was purchased from American Type Culture Collection (Manassas, VA). MIA PaCa-2 cells were cultured in DMEM containing 10% FBS, 2.5% horse serum, 100 μg/ml of penicillin and 100 μg/ml of streptomycin. Cultures were maintained at 37° C. in a humidified atmosphere of 5% CO2 and 95% air.
Test compounds and reference compound, staurosporine, were diluted in DMSO solution with 10-dose and 3-fold dilution in a source plate starting at 10 mM. • 2. 25 nL of test compounds or 25 nL of staurosporine was delivered from the source plate to each well of the 384-well cell culture plate by Echo 550. • 3. 25 μL of culture media containing 2000 cells was added to each of the wells of the cell culture plate in duplicate. • 4. The cells were incubated with the compounds at 37° C., 5% CO2 for 72 hours. • 5. […] Luminescence was recorded by Envision 2104 Multilabel Reader (PerkinElmer, Santa Clara, CA). The number of viable cells in culture was determined based on quantitation of the ATP present in each culture well. • 8. The IC50 curves were plotted and IC50 values were calculated using the GraphPad Prism 4 program based on a sigmoidal dose-response equation
[6] abbreviates: 3 mg/kg, i.v., single dose, mean plasma.
Where [7] appears, read: 30 mg/kg, p.o., single dose, mean plasma.
Setting [8] is: mouse, iv, 3 mg/kg, i.v., single dose, mean plasma.
Where [9] appears, read: mouse, iv, 3 mg/kg, single dose, mean plasma.
The mark [10] stands for this setting: mouse, po, 30 mg/kg, p.o., single dose, mean plasma.
[11] abbreviates: mouse, po, 30 mg/kg, single dose, mean plasma.

T2 sequence (P01116 2-169 G12D): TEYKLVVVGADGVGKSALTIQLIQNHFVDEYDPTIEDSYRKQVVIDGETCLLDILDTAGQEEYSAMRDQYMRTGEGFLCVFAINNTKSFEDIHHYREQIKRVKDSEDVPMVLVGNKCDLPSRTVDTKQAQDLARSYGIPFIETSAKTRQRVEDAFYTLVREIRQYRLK

For `Cn1cnc(Cn2ccc3ccc(CNCc4[nH]c5ccccc5c4[C@H]4NC(=O)c5ccc(O)cc54)cc32)c1` [BI-2852, reference compound], the half-inhibitory concentration (IC50) in data set [1] stood at 320 nM.
On to `C=CC(=O)N1CCN(c2cc(OC[C@@H]3CCCN3C)nc3cc(-c4cccc5cccc(Cl)c45)cnc23)C[C@@H]1CC#N` [Example 1, 2-((S)-1-Acryloyl-4-(7-(8-chloronaphthalen-1-yl)-2-(((S)-1-methylpyrrolidin-2-yl)methoxy)-1,5-naphthyridin-4-yl)piperazin-2-yl)acetonitrile], for which the values for the IC50 in data set [2] and in data set [1] were 38 nM and 4.4 nM, respectively.
For the molecule `C=C(F)C(=O)N1CCN(c2cc(OC[C@@H]3CCCN3C)nc3cc(-c4cccc5cccc(Cl)c45)cnc23)C[C@@H]1CC#N` [Example 2, 2-((S)-4-(7-(8-Chloronaphthalen-1-yl)-2-(((S)-1-methylpyrrolidin-2-yl)methoxy)-1,5-naphthyridin-4-yl)-1-(2-fluoroacryloyl)piperazin-2-yl)acetonitrile], it took 130 nM to reach half-maximal inhibition in data set [2] (IC50).
For the molecule `CC(=O)c1c(F)ccc2cc(O)cc(-c3cnc4c(N5C[C@H]6CC[C@@H](C5)N6)cc(OC[C@@]56CCCN5C[C@H](F)C6)nc4c3)c12` [Example 3, 1-(8-(8-((1R,5S)-3,8-Diazabicyclo[3.2.1]octan-3-yl)-6-(((2R,7aS)-2-fluorotetrahydro-1H-pyrrolizin-7a(5H)-yl)methoxy)-1,5-naphthyridin-3-yl)-2-fluoro-6-hydroxynaphthalen-1-yl)ethan-1-one], the IC50 in data set [3] is 1500 nM.
Still for that read-out and setting: the figure for `Oc1cc(-c2cnc3c(N4C[C@H]5CC[C@@H](C4)N5)cc(OCC45CCCN4CCC5)nc3c2)c2ccccc2c1` [Example 4, 4-(8-((1R,5S)-3,8-Diazabicyclo[3.2.1]octan-3-yl)-6-((tetrahydro-1H-pyrrolizin-7a(5H)-yl)methoxy)-1,5-naphthyridin-3-yl)naphthalen-2-ol] is 1000 nM.
In data set [4] (setting [6]), `C=CC(=O)N1CCN(c2cc(OCC34CCCN3CCC4)nc3cc(-c4cccc5cccc(Cl)c45)cnc23)C[C@@H]1CC#N` [Example 5, (S)-2-(1-acryloyl-4-(7-(8-chloronaphthalen-1-yl)-2-((tetrahydro-1H-pyrrolizin-7a(5H)-yl)methoxy)-1,5-naphthyridin-4-yl)piperazin-2-yl)acetonitrile] had an AUCExtra of 2.52%, an AUMCExtra of 14.3% and a Tlast of 8.00 h. Besides, in data set [4] (setting [7]), the AUCExtra worked out at 0.315%, the AUMCExtra is reported as 1.85% and the Tlast is listed as 24.0 h. Besides, in data set [4] (setting [8]), the MRT inf turned out to be 1.77 h and the MRT last came out at 1.56 h. For the same molecule, in data set [4] (mouse, iv, 3 mg/kg, i.v., single dose, mean plasma, read-out: Vdss), the Vd is 7.7 L/kg. In data set [4] (setting [9]), this molecule displayed an AUC(0-inf) of 691 ng·h/mL, an AUC(0-t) of 673 ng·h/mL, a C0 of 800 ng/mL and a clearance of 72.4 mL/min/kg. In data set [4] (setting [9]), this molecule gave a half-life of 1.42 h. For the same molecule, the bioavailability in data set [4] (mouse, plasma, oral, 30 mg/kg, p.o., single dose vs 3 mg/kg i.v.) worked out at 21.7%. Further, in data set [4] (setting [10]), the MRT inf turned out to be 4.79 h and the MRT last is 4.72 h. In data set [4] (setting [11]), the AUC(0-inf) was 1500 ng·h/mL, the AUC(0-t) amounted to 1500 ng·h/mL, the Cmax is 249 ng/mL and the Tmax turned out to be 1 h. In data set [4] (setting [11]), the half-life is 2.85 h. Also, the IC50 in data set [2] was 38 nM. In data set [5], the 50% inhibitory concentration (IC50) worked out at 2880 nM. This molecule also yielded an IC50 in data set [1] of less than 0.5 nM.
In the case of `C=C(F)C(=O)N1CCN(c2cc(OCC34CCCN3CCC4)nc3cc(-c4cccc5cccc(Cl)c45)cnc23)C[C@@H]1CC#N` [Example 6, (S)-2-(4-(7-(8-chloronaphthalen-1-yl)-2-((tetrahydro-1H-pyrrolizin-7a(5H)-yl)methoxy)-1,5-naphthyridin-4-yl)-1-(2-fluoroacryloyl)piperazin-2-yl)acetonitrile], the values for the IC50 in data set [2] and in data set [1] were 59 nM and 334 nM, respectively.
In the case of `C=CC(=O)N1CCN(c2cc(OC[C@@]34CCCN3C[C@H](F)C4)nc3cc(-c4cccc5cccc(Cl)c45)cnc23)C[C@@H]1CC#N` [Example 7, 2-((S)-1-acryloyl-4-(7-(8-chloronaphthalen-1-yl)-2-(((2R,7aS)-2-fluorotetrahydro-1H-pyrrolizin-7a(5H)-yl)methoxy)-1,5-naphthyridin-4-yl)piperazin-2-yl)acetonitrile], half-maximal inhibition in data set [2] (IC50) required 31 nM.
For the molecule `C=C(F)C(=O)N1CCN(c2cc(OC[C@@]34CCCN3C[C@H](F)C4)nc3cc(-c4cccc5cccc(Cl)c45)cnc23)C[C@@H]1CC#N` [Example 8, 2-((S)-4-(7-(8-chloronaphthalen-1-yl)-2-(((2R,7aS)-2-fluorotetrahydro-1H-pyrrolizin-7a(5H)-yl)methoxy)-1,5-naphthyridin-4-yl)-1-(2-fluoroacryloyl)piperazin-2-yl)acetonitrile], the IC50 in data set [2] amounted to 65 nM.
Take `CN[C@@H]1C[C@H]2O[C@@](C)([C@@H]1OC)n1c3ccccc3c3c4c(c5c6ccccc6n2c5c31)C(=O)NC4` [Staurosporine, staurosporine, reference compound]: in data set [5], the IC50 came to 249 nM.
